≈ marks a conversion by molar mass, not a printed value. Read-outs that look alike come from different tables or passages of the source.
Columns and labels:
Staphyloccus aureus X1.1 = experiment: MIC, standard agar-dilution assay (Table IX); assay type: cell-based, Staphylococcus aureus; conditions: Staphylococcus aureus, read-out: MIC
[1] = test system: Staphylococcus aureus V41; experiment: MIC, standard agar-dilution assay (Table IX); assay type: cell-based; conditions: Staphylococcus aureus V41, Penicillin-resistant strain, read-out: MIC
[2] = test system: Staphylococcus aureus X400; experiment: MIC, standard agar-dilution assay (Table IX); assay type: cell-based; conditions: Staphylococcus aureus X400, Methicillin-resistant strain, read-out: MIC
[3] = test system: Staphylococcus aureus S13E; experiment: MIC, standard agar-dilution assay (Table IX); assay type: cell-based; conditions: Staphylococcus aureus, S13E
[4] = test system: Staphylococcus epidermidis EPI1; experiment: MIC, standard agar-dilution assay (Table IX); assay type: cell-based
[5] = test system: Staphylococcus epidermidis 222; experiment: MIC, standard agar-dilution assay (Table IX); assay type: cell-based; conditions: read-out: MIC
[6] = test system: Streptococcus pyogenes C203; experiment: MIC, standard agar-dilution assay (Table IX); assay type: cell-based; conditions: read-out: MIC
[7] = test system: Streptococcus pneumoniae Park I; experiment: MIC, standard agar-dilution assay (Table IX); assay type: cell-based
[8] = test system: Streptococcus Group D X66; experiment: MIC, standard agar-dilution assay (Table IX); assay type: cell-based; conditions: read-out: MIC
[9] = test system: Streptococcus Group D 2041; experiment: MIC, standard agar-dilution assay (Table IX); assay type: cell-based; conditions: GROUPD2041, read-out: MIC
[10] = test system: Haemophilus influenzae C.L.; experiment: MIC, standard agar-dilution assay (Table IX); assay type: cell-based; conditions: Ampicillin-sensitive strain, read-out: MIC
[11] = test system: Haemophilus influenzae 76; experiment: MIC, standard agar-dilution assay (Table IX); assay type: cell-based; conditions: Haemophilus influenzae 76, Ampicillin-resistant strain, read-out: MIC
Escherichia coli N10 = experiment: MIC, standard agar-dilution assay (Table IX); assay type: cell-based; conditions: read-out: MIC
Escherichia coli EC14 = experiment: MIC, standard agar-dilution assay (Table IX); assay type: cell-based; conditions: read-out: MIC
Escherichia coli TEM = experiment: MIC, standard agar-dilution assay (Table IX); assay type: cell-based; conditions: read-out: MIC
Klebsiella X26 = experiment: MIC, standard agar-dilution assay (Table IX); assay type: cell-based; conditions: read-out: MIC
[12] = test system: Streptococcus pyogenes C203; experiment: ED50 in mice experimentally infected with S. pyogenes C203 (Table XI); assay type: in vivo; conditions: doses given 1 and 4 hours postinfection
Procedure: The C-20 modified derivatives of this invention have shown in vivo antimicrobial activity against experimentally-induced infections in laboratory animals. When two doses of test compound were administered to mice experimentally infected with S. pyogenes C203, the activity observed was measured as an ED50 value [effective dose in mg/kg to protect 50% of the test animals: see Warren Wick, et al., J. Bacteriol. 81, 233-235 (1961)].
^a mg/kg × 2; doses given 1 and 4 hours postinfection

[13] = test system: Mycoplasma gallisepticum 29C; experiment: MIC, broth-dilution microtiter test (Table X); assay type: cell-based; conditions: Mycoplasmoides gallisepticum, read-out: MIC
Source text: (§1) The MIC's in Table X were obtained using conventional broth-dilution microtiter tests.

[14] = test system: Mycoplasma hyopneumoniae S5972; experiment: MIC, broth-dilution microtiter test (Table X); assay type: cell-based; conditions: Mesomycoplasma hyopneumoniae, read-out: MIC
Source text: as §1

Mycoplasma hyorhinis 29E = experiment: MIC, broth-dilution microtiter test (Table X); assay type: cell-based; conditions: read-out: MIC
Source text: as §1

Mycoplasma synoviae 40A = experiment: MIC, broth-dilution microtiter test (Table X); assay type: cell-based; conditions: Mycoplasmopsis synoviae, read-out: MIC
Source text: as §1

[15] = test system: Pasteurella hemolytica 22C; experiment: MIC, broth-dilution microtiter test (Table X); assay type: cell-based; conditions: read-out: MIC
Source text: as §1

[16] = test system: Pasteurella multocida 17E; experiment: MIC, broth-dilution microtiter test (Table X); assay type: cell-based; conditions: Bovine isolate, read-out: MIC
Source text: as §1

[17] = test system: Pasteurella multocida 60A; experiment: MIC, broth-dilution microtiter test (Table X); assay type: cell-based; conditions: Avian isolate, read-out: MIC
Source text: as §1

Staphylococcus aureus = experiment: MIC, broth-dilution microtiter test (Table X); assay type: cell-based; conditions: read-out: MIC
Source text: as §1

Streptococcus sp. 19F = experiment: MIC, broth-dilution microtiter test (Table X); assay type: cell-based; conditions: read-out: MIC
Source text: as §1

[18] = Titratable groups in 66% aqueous DMF (Tables XIV-XVI); assay type: physicochemical
Source text: ^c Run in 66% aqueous DMF
^d Run in 66% aqueous DMF

[19] = Staphylococcus epidermidis EPI1, agar-dilution, read-out: MIC
[20] = Streptococcus pneumoniae Park I, agar-dilution, read-out: MIC
[21] = Streptococcus pyogenes, C203, Oral, read-out: ED50
[22] = Streptococcus pyogenes, C203, sc, Subcutaneous, read-out: ED50

| Structure (SMILES) | MIC (Staphyloccus aureus X1.1) [µg/mL] | MIC [1] [µg/mL] | MIC [2] [µg/mL] | MIC [3] [µg/mL] | MIC [4, 19] [µg/mL] | MIC [5] [µg/mL] | MIC [6] [µg/mL] | MIC [7, 20] [µg/mL] | MIC [8] [µg/mL] | MIC [9] [µg/mL] | MIC [10] [µg/mL] | MIC [11] [µg/mL] | MIC (Escherichia coli N10) [µg/mL] | MIC (Escherichia coli EC14) [µg/mL] | MIC (Escherichia coli TEM) [µg/mL] | MIC (Klebsiella X26) [µg/mL] | MIC [13] [µg/mL] | MIC [14] [µg/mL] | MIC (Mycoplasma hyorhinis 29E) [µg/mL] | MIC (Mycoplasma synoviae 40A) [µg/mL] | further results |
| --- | --- | --- | --- | --- | --- | --- | --- | --- | --- | --- | --- | --- | --- | --- | --- | --- | --- | --- | --- | --- | --- |
| CCC1OC(=O)CC(O)C(C)C(OC2OC(C)C(O)C(N(C)C)C2O)C(CCN2CCCC(C)(C)C2)CC(C)C(=O)C=CC(C)=CC1COC1OC(C)C(O)C(OC)C1OC (stereo not drawn) [Compound D40, 20-DH-DO-20-(3,3-dimethylpiperidin-1-yl)desmycosin] | 0.5 (≈ 0.575 µM) | 0.5 (≈ 0.575 µM) | 0.5 (≈ 0.575 µM) | 0.5 (≈ 0.575 µM) | 0.5 (≈ 0.575 µM) | 0.25 (≈ 0.288 µM) | 0.25 (≈ 0.288 µM) | 2 (≈ 2.3 µM) | 4 (≈ 4.6 µM) | 8 (≈ 9.2 µM) | 4 (≈ 4.6 µM) | 8 (≈ 9.2 µM) | 64 (≈ 73.6 µM) | 64 (≈ 73.6 µM) | 16 (≈ 18.4 µM) | 16 (≈ 18.4 µM) | – | – | – | – | – |
| CCC1OC(=O)CC(O)C(C)C(OC2OC(C)C(O)C(N(C)C)C2O)C(CCN2CC(C)CC(C)C2)CC(C)C(=O)C=CC(C)=CC1COC1OC(C)C(O)C(OC)C1OC (racemic) [Compound D35] | – | – | – | – | – | – | – | – | – | – | – | – | – | – | – | – | – | – | – | – | ED50 ([12]; Oral): 10.93 mg/kg × 2; ED50 ([12]; Subcutaneous): 0.88 mg/kg × 2 |
| CCC1OC(=O)CC(O)C(C)C(OC2OC(C)C(OC3CC(C)(O)C(O)C(C)O3)C(N(C)C)C2O)C(CCN2CC3CCC(CC3)C2)CC(C)C(=O)C=CC(C)=CC1COC1OC(C)C(O)C(OC)C1OC (stereo not drawn) [Compound T13, 20-DH-DO-20-(3-azabicyclo[3.2.2]nonan-3-yl)tylosin] | 4 (≈ 3.9 µM) | 4 (≈ 3.9 µM) | 8 (≈ 7.8 µM) | 4 (≈ 3.9 µM) | – | 2 (≈ 1.95 µM) | 4 (≈ 3.9 µM) | – | 128 (≈ 125 µM) | > 128 | 128 (≈ 125 µM) | 128 (≈ 125 µM) | > 128 | > 128 | > 128 | > 128 | 1.56 (≈ 1.52 µM) | 25 (≈ 24.4 µM) | > 50 | 1.56 (≈ 1.52 µM) | MIC ([4]; Staphylococcus epidermidis, EPI1): 4 µg/mL (≈ 3.9 µM); MIC ([7]; Streptococcus pneumoniae): 16 µg/mL (≈ 15.6 µM); MIC [15]: 50 µg/mL (≈ 48.8 µM); MIC [16]: > 50 µg/mL; MIC [17]: > 50 µg/mL; MIC (Staphylococcus aureus): 6.25 µg/mL (≈ 6.1 µM); MIC (Streptococcus sp. 19F): 50 µg/mL (≈ 48.8 µM); ED50 [12, 21]: 30 mg/kg; ED50 [12, 22]: > 10 mg/kg |
| CCC1OC(=O)CC(O)C(C)C(OC2OC(C)C(O)C(N(C)C)C2O)C(CCN2CCC(O)CC2)CC(C)C(=O)C=CC(C)=CC1COC1OC(C)C(O)C(OC)C1OC (stereo not drawn) [Compound D3, 20-DH-DO-20-(4-hydroxypiperidin-1-yl)desmycosin] | 8 (≈ 9.33 µM) | 8 (≈ 9.33 µM) | 16 (≈ 18.7 µM) | 8 (≈ 9.33 µM) | 8 (≈ 9.33 µM) | 4 (≈ 4.67 µM) | 1 (≈ 1.17 µM) | 8 (≈ 9.33 µM) | 128 (≈ 149 µM) | 32 (≈ 37.3 µM) | 64 (≈ 74.7 µM) | 64 (≈ 74.7 µM) | > 128 | > 128 | > 128 | 64 (≈ 74.7 µM) | 25 (≈ 29.2 µM) | 6.25 (≈ 7.29 µM) | 50 (≈ 58.3 µM) | 6.25 (≈ 7.29 µM) | MIC [15]: 50 µg/mL (≈ 58.3 µM); MIC [16]: 50 µg/mL (≈ 58.3 µM); MIC [17]: 50 µg/mL (≈ 58.3 µM); MIC (Staphylococcus aureus): 12.5 µg/mL (≈ 14.6 µM); MIC (Streptococcus sp. 19F): 12.5 µg/mL (≈ 14.6 µM); pKa ([18]; Titratable groups): 8.7; pKa ([18]; Titratable groups (first value)): 7.1 |
| CCC1OC(=O)CC(O)C(C)C(OC2OC(C)C(OC3CC(C)(O)C(O)C(C)O3)C(N(C)C)C2O)C(CCN2CCCCCCC2)CC(C)C(=O)C=CC(C)=CC1COC1OC(C)C(O)C(OC)C1OC (stereo not drawn) [Compound T6, 20-DH-DO-20-(octahydroazocin-1-yl)tylosin] | 4 (≈ 3.95 µM) | 4 (≈ 3.95 µM) | 8 (≈ 7.89 µM) | 4 (≈ 3.95 µM) | 4 (≈ 3.95 µM) | 2 (≈ 1.97 µM) | 2 (≈ 1.97 µM) | 8 (≈ 7.89 µM) | > 128 | > 128 | 64 (≈ 63.2 µM) | > 128 | > 128 | > 128 | > 128 | > 128 | 3.12 (≈ 3.08 µM) | 12.5 (≈ 12.3 µM) | > 50 | 0.78 (≈ 0.77 µM) | MIC [15]: 50 µg/mL (≈ 49.3 µM); MIC [16]: > 50 µg/mL; MIC [17]: > 50 µg/mL; MIC (Staphylococcus aureus): 12.5 µg/mL (≈ 12.3 µM); MIC (Streptococcus sp. 19F): 50 µg/mL (≈ 49.3 µM); ED50 [12, 21]: 44 mg/kg; ED50 [12, 22]: > 10 mg/kg |
| CCC1OC(=O)CC(O)C(C)C(OC2OC(C)CC(N(C)C)C2O)C(CCN2CCCCCC2)CC(C)C(=O)C=CC(C)=CC1COC1OC(C)C(O)C(OC)C1OC (stereo not drawn) [Compound D5a, 20-DH-DO-20-(Hexahydroazepin-1-yl)-4'-deoxydesmycosin] | 0.5 (≈ 0.596 µM) | 0.5 (≈ 0.596 µM) | 1 (≈ 1.19 µM) | 0.5 (≈ 0.596 µM) | 0.5 (≈ 0.596 µM) | 0.25 (≈ 0.298 µM) | 0.25 (≈ 0.298 µM) | 0.25 (≈ 0.298 µM) | 2 (≈ 2.38 µM) | 2 (≈ 2.38 µM) | 8 (≈ 9.53 µM) | 8 (≈ 9.53 µM) | 64 (≈ 76.3 µM) | 128 (≈ 153 µM) | 8 (≈ 9.53 µM) | 8 (≈ 9.53 µM) | 0.78 (≈ 0.93 µM) | 0.195 (≈ 0.232 µM) | 3.12 (≈ 3.72 µM) | 0.195 (≈ 0.232 µM) | MIC [15]: 3.12 µg/mL (≈ 3.72 µM); MIC [16]: 6.25 µg/mL (≈ 7.45 µM); MIC [17]: 3.12 µg/mL (≈ 3.72 µM); MIC (Staphylococcus aureus): 0.39 µg/mL (≈ 0.465 µM); MIC (Streptococcus sp. 19F): 0.78 µg/mL (≈ 0.93 µM); ED50 [12, 21]: 34 mg/kg; ED50 [12, 22]: 1.5 mg/kg |

Source: US4820695A, “C-20-dihydro-deoxy-(cyclic amino)-derivatives of macrolide antibiotics” (priority 1987, dated 1989)
